Data on 25 compounds can be found in US5169852A, “Method of suppressing appetite by administration of tetrahydro-beta-carboline derivatives” (priority 1990, dated 1992).

The nature of data set [1]: Reduction of food intake in fasted rats, intraperitoneal (IC50 from dose-response curve). Format: in vivo, rat. The following applies: ip.
Excerpt: The measured food intake was plotted as a function of the natural logarithm of the drug concentration (ln(Dose)) given to the animal for each of the compounds listed above. A dose response curve of the functional form: Intake =α+(1-α)/[1+exp(β- ln(Dose))]was fit to each of the data sets using the NONLIN feature of the Systat™ statistical analysis software package for the Macintosh™ (Systat, Evanston, Il).
Data set [2] is described as follows: Partial appetite suppression: food intake over one hour vs dose (FIG. 5). Format: in vivo. The note with it: rat. As to the method: Adult male rats weighing between 250 and 300 g were acclimated to laboratory conditions for a period of 4-5 days, during which they were allowed unrestricted access to food (Ralston-Purina #5001M) and water. All animals were housed in individual cages. The animal facility was maintained on a 12:12 hr light-dark schedule at 22° C.
Fasted animals were sorted into groups of 10-12 each by weight and baseline food intake. Each was then given saline containing 0-32 mg/Kg of a compound of the invention (or THBC) by intraperitoneal injection. After 20 minutes, animals were allowed access to food and water. Cumulative food intake was measured at 1 hour post-injection.
Reduction in food intake over one hour was measured against the dose per unit body weight for THBC and compound 14. The results are shown in FIG. 5A, which compares compound 14 with THBC.

For data set [3], the system named is benzodiazepine receptors. The following applies: Skolnick; Robertson; cited from earlier work.
Data set [4] has as its system brain tryptamine binding sites. The note with it: cited from earlier work.
The subject of data set [5] is brain imipramine binding sites. The following applies: cited from earlier work.
In data set [6] the test system is brain 5-hydroxytryptamine (5-HT) binding sites. The following applies: cited from earlier work.
In data set [7] the test system is brain spiperone binding sites. The following applies: cited from earlier work.
For data set [8], the system named is 5 HT efflux. The following applies: brain slices; cited from earlier work.
Data set [9] has as its system 5-HT uptake. The following applies: brain synaptosomes; cited from earlier work.
Data set [10] deals with 5-HT oxidative deamination. The following applies: cited from earlier work.
For data set [11] the following is noted: cited from earlier work.
For data set [12] the following is noted: rats; cited from earlier work.
The conditions of data set [13]: systemic, rodents; cited from earlier work.
For data set [14] the following is noted: parenteral, rats; cited from earlier work.
The conditions of data set [15]: cited from earlier work. The source holds these as a separate data set.
For data set [16] the following is noted: cited from earlier work; for effect on feeding (hyperphagic / anorectic): S. Cooper.
For data set [17] the following is noted: human, in vivo; cited from earlier work.
The mark [18] stands for this setting: rat, intraperitoneal, 1 hour food intake, Table 2, read-out: Activity LOG (IC50), reduction of food intake (converted).
The mark [19] stands for this setting: rat, intraperitoneal, 1 hour food intake, Table 3, read-out: Log (1/IC50) Measured (converted).
[20] abbreviates: Rattus norvegicus, 1 h, read-out: Activity LOG (IC50), reduction of food intake.
[21] abbreviates: Rattus norvegicus, 1 h, read-out: Log (1/IC50) Measured.

Entries after “also recorded” stand apart in the source; their conditions may differ. Counter-ions that a name gives are not always drawn. Like-named read-outs stand apart in the source and are kept apart here.

Regarding `O=C(O)C1Cc2c([nH]c3ccccc23)CN1` (racemic) [Compound 14, (±) 3-carboxyl-1,2,3,4-tetrahydro-β-carboline], the ED50 in data set [1] (setting [18]) was 0.0331 µmol/kg; in data set [1] (setting [19]), 30.2 µmol/kg. The “feeding depression / dose-response behavior” value in data set [2] is “will not depress feeding behavior over a comparatively large feeding range; also recorded: moderate feeding depression over a broad dosage range”.
`COC(=O)C1Cc2c([nH]c3ccccc23)CN1` (stereo not drawn) [3-carbomethoxy-1,2,3,4-tetrahydro-β-carboline]: the “binding affinity to benzodiazepine receptors” value in data set [3] is “very low affinity”.
For the compound `c1ccc2c3c([nH]c2c1)CNCC3` [Compound 1, 1,2,3,4-tetrahydro-β-carboline], the ED50 in data set [1] (setting [20]) is 0.0145 µmol/kg. In data set [1] (setting [21]), the ED50 is 69.2 µmol/kg. In addition, the “feeding depression / dose-response behavior” value in [2] is on record as “little feeding depression at low dosage, but relatively complete feeding depression at higher dosage”. In data set [4], the “competition for brain tryptamine binding sites” value is “low affinity”. Also, the “competition for brain imipramine binding sites” value in data set [5] was “low affinity”. Besides, in data set [6], the “competition for brain 5-HT binding sites” value is listed as “low affinity”. Also, the “competition for brain spiperone binding sites” value in data set [7] is reported as “low affinity”. The “depolarization-induced 5 HT efflux” value in data set [8] is “enhances”. In data set [9], the “inhibition of 5-HT uptake” value is given as “weakly inhibits”. Moreover, in [10], the “inhibition of 5-HT oxidative deamination” value is “weakly inhibits”. Further, in [11] (high doses), the “behavioral syndrome at high doses” value was “hyperactivity, forepaw treating, body weaving, and circling”. Also, in [11] (parenteral), the behavioral effects entry was “suppresses locomotion, exploratory activity, and conflict behavior, impairs performance on operantly conditioned learning and memory tasks, reduces seizure susceptibility, prolongs barbiturate sedation, and antagonizes specific drug induced stereotypic behavior”. Also, the “behavioral effects, intraventricular” value in data set [12] is “reduce motor activity, induce apparent anxiety, and increase voluntary ethanol consumption”. Further, in [13], the plasma corticosterone result is listed as “elevated”, the plasma prolactin levels result is listed as “dose-dependent elevation” and the “serum luteinizing hormone levels” value is on record as “decreased”. The “dose eliciting significant hypothermia” value in data set [14] is no less than 6.25 mg/kg. The deaths in data set [15] (49 mg/Kg/day or greater) was 6 out of the 24. The “treatment day by which food consumption returns to normal (tolerance)” value in data set [15] (daily oral, in excess of 49 mg/Kg) was “twelfth”. Further, the “appetite, smaller daily doses” value in [15] (daily oral, less than 30 mg/Kg) is given as “do not significantly alter appetite”. Besides, the “food intake, daily oral administration” value in [15] (in excess of 49 mg/Kg daily, after two consecutive days) is “significant reductions in food intake”.
As to `COc1ccc2[nH]c3c(c2c1)CCNC3` [Compound 2, 6-methoxy-1,2,3,4-tetrahydro-β-carboline], the results for the ED50 in data set [1] (setting [20]) and in [1] (setting [21]) were 0.0162 µmol/kg and 61.7 µmol/kg, respectively.
In the same order, the values of `Fc1ccc2[nH]c3c(c2c1)CCNC3` [Compound 4, 6-fluoro-1,2,3,4 tetrahydro-β-carboline hydrochloride] are 0.0257 µmol/kg and 38.9 µmol/kg.
Regarding `Fc1ccc2c3c([nH]c2c1)CNCC3` [Compound 5, 7-fluoro-1,2,3,4-tetrahydro-β-carboline hydrochloride], the ED50 in [1] (setting [20]) is 0.0214 µmol/kg; in [1] (setting [21]) it was 46.8 µmol/kg.
As for `CC1NCCc2c1[nH]c1ccccc21` (stereo not shown) [Compound 7], the ED50 in [1] (setting [21]) was 100 µmol/kg.
On to `Clc1ccc2[nH]c3c(c2c1)CCNC3` [Compound 8, 6-chloro-1,2,3,4-tetrahydro-β-carboline hydrochloride], for which the ED50 in data set [1] (setting [20]) was 0.0347 µmol/kg; in data set [1] (setting [21]), 28.8 µmol/kg.
Turning to `Cc1cccc2c3c([nH]c12)CNCC3` [Compound 10, 8-methyl-1,2,3,4-tetrahydro-β-carboline hydrochloride], the ED50 was 0.0162 µmol/kg in [1] (setting [18]) and 61.7 µmol/kg in data set [1] (setting [19]).
With `Cc1ccc2[nH]c3c(c2c1)CCNC3` [Compound 12], the ED50 in data set [1] (setting [19]) is 30.9 µmol/kg.
On to `CCC1Cc2c([nH]c3ccccc23)CN1` (stereo not shown) [Compound 13], for which the ED50 in [1] (setting [19]) was 77.6 µmol/kg.
As for `O=C(O)C1Cc2c([nH]c3ccc(O)cc23)CN1` (stereo not shown) [Compound 15], the ED50 in data set [1] (setting [19]) was 91.2 µmol/kg.
Take `CC(=O)N1CCc2c([nH]c3ccccc23)C1` [Compound 16, 2-acetyl-1,2,3,4-tetrahydro-β-carboline]: the ED50 in [1] (setting [18]) is 0.0162 µmol/kg; in [1] (setting [19]), 61.7 µmol/kg. Further, the “feeding depression / dose-response behavior” value in data set [2] is reported as “The same behavior was observed”.
For `Cc1cccc2[nH]c3c(c12)CCNC3` [Compound 17], in [1] (setting [19]), the ED50 is 30.2 µmol/kg.
On the same count and under the same terms, next, `O=Cn1c2c(c3ccccc31)CCNC2` [Compound 18]: 91.2 µmol/kg.
`c1ccc(Cn2c3c(c4ccccc42)CCNC3)cc1` [Compound 19, 9 benzyl-1,2,3,4-tetrahydro-β-carboline hydro-chloride]: the ED50 was 0.0447 µmol/kg in data set [1] (setting [18]) and 22.4 µmol/kg in [1] (setting [19]).
With `CCn1c2c(c3ccccc31)CCNC2` [Compound 20, 9-ethyl-1,2,3,4-tetrahydro-β-carboline hydrochloride], the ED50 was 0.0309 µmol/kg in data set [1] (setting [18]) and 32.4 µmol/kg in data set [1] (setting [19]).
In the case of `CCCCCn1c2c(c3cc(C)ccc31)CCNC2` [Compound 21, 6-Methyl-9-(n-pentyl)-1,2,3,4-tetrahydro-β-carboline hydrochloride], the figures for the ED50 in data set [1] (setting [18]) and in [1] (setting [19]) were 0.0589 µmol/kg and 17 µmol/kg, respectively.
The corresponding values for `CCCCCn1c2c(c3ccccc31)CCNC2` [Compound 23, 9-(n-pentyl)-1,2,3,4-tetrahydro-β-carboline hydrochloride] are 0.055 µmol/kg and 18.2 µmol/kg.
As to `CC(=O)N1CCc2c(n(Cc3ccccc3)c3ccccc23)C1` [Compound 27, 2 acetyl-9 benzyl-1,2,3,4-tetrahydro-β-carboline], the ED50 was 0.0339 µmol/kg in [1] (setting [18]) and 29.5 µmol/kg in data set [1] (setting [19]).
Regarding `CCOC(=O)c1ncc2[nH]c3ccc(OCc4ccccc4)cc3c2c1COC` [ethyl 6-benzyloxy-4-meth-oxymethyl-β-carboline-3-carboxylate], in [16], the “effect on feeding (hyperphagic / anorectic)” value is “hyperphagic”.
Consider `CCOC(=O)c1ncc2[nH]c3cccc(OCc4ccccc4)c3c2c1COC` [ethyl-5-benzyloxy-4-methoxymethyl β-carboline-3-carboxylate], for which, in [16], the “effect on feeding (hyperphagic / anorectic)” value is listed as “hyperphagic”.
As for `CCNC(C)Cc1cccc(C(F)(F)F)c1` (stereo not shown) [fenfluramine], in data set [17], the clinical efficacy result was “inadequate clinical efficacy”; the “patient complaints (side effects)” value was “drowsiness and headache”.
As to `CNC(=O)c1cc2c(cn1)[nH]c1ccccc12` [β-carboline-3-carboxylic acid methyl amide], in data set [16] (10.0 mg/Kg, intraperitoneal), the “food consumption by partially sated rats” value is 30 % of control. Besides, the “effect on feeding (hyperphagic / anorectic)” value in [16] is “anorectic”.
With “ethyl -isopropoxy-4-methyl-β-carboline-3-carboxylate”, in data set [16], the “effect on feeding (hyperphagic / anorectic)” value is “hyperphagic”.
